In US6960347B2, “Composition based on N-cholesteryloxycarbonyl-4-para-aminophenol and hydroquinone or one of its derivatives” (L'Oreal, priority 2000, dated 2005):

System: fungal tyrosinase
Assay: in vitro inhibition of the activity of fungal tyrosinase (absorbance at 475 nm)
Type: biochemical
Settings: for molar concentration for which an inhibition value of 25% is observed: compound dissolved in ethanol, phosphate buffer, L-tyrosine and L-Dopa substrates, OD 475 nm
Experimental: This test involves in measuring the absorbance (optical density OD) at 475 nm as a function of time for the hydroquinone dissolved (at various concentrations) in ethanol in the presence of a phosphate buffer, 1 ml of L-tyrosine at 2.0×10^−3 M in a phosphate buffer, 0.1 ml of L-Dopa at 1.0×10^−4 M in a phosphate buffer and 50 μl of a solution of fungal tyrosinase at 1 g/l in a phosphate buffer, compared with a control consisting of ethanol (solvent) used at the same concentration in the phosphate buffer.
The percentage of inhibition is determined by the following equation: [formula]
The molar concentration of hydroquinone for which an inhibition value of 25% is observed is then determined.
The test described in Example 1 above is used, except that N-ethyloxycarbonyl-4-para-aminophenol was substituted for N-cholesteryloxycarbonyl-4-para-aminophenol.

molar concentration for which an inhibition value of 25% is observed | inhibition of tyrosinase (compound alone at C2=6.77×10^−5 M (solubility limit in DMSO)) | SMILES
125 µM | – | CCOC(=O)Nc1ccc(O)cc1 [N-ethyloxycarbonyl-4-para-aminophenol]
– | no inhibition | CC(C)CCC[C@@H](C)[C@H]1CC[C@H]2[C@@H]3CC=C4C[C@@H](OC(=O)Nc5ccc(O)cc5)CC[C@]4(C)[C@H]3CC[C@]12C [N-cholesteryloxycarbonyl-4-para-aminophenol]
80 µM | – | Oc1ccc(O)cc1 [hydroquinone]
